From patent publication US10537571B2, “Pyrimidine FGFR4 inhibitors” (priority 2013, dated 2020)
Where two headings read alike, the source gives them in different places.

Test system: HEP3B tumor xenografts
Format: in vivo
Details: for comparative tumor growth efficacy: Hep3B

SMILES | tolerability (health of animals) (30 mg/kg orally twice daily) | tolerability (health of animals) (60 mg/kg orally twice daily, dosing terminated on Day 11) | comparative tumor growth efficacy (60 mg/kg orally twice daily) | comparative tumor growth efficacy (25, 37.5 or 50 mg/kg i.p. twice daily)
CCN1CCN(c2ccc(Nc3cc(N(C)C(=O)Nc4c(Cl)c(OC)cc(OC)c4Cl)ncn3)cc2)CC1 [BGJ398] | did not exhibit poor health | poor health of animals | efficacy comparable to compound 108 | –
C=CC(=O)Nc1cc(N2CCN(CC)CC2)ccc1Nc1cc(N(C)C(=O)Nc2c(Cl)c(OC)cc(OC)c2Cl)ncn1 [Compound 108, N-(2-(6-(3-(2,6-Dichloro-3,5-dimethoxyphenyl)-1-methylureido)pyrimidin-4-ylamino)-5-(4-ethylpiperazin-1-yl)-phenyl)acrylamide] | – | – | – | more efficacious than BGJ398
